# In patent US20180258069A1, “NEW CRYSTAL OF PIPERAZINE COMPOUND” (TAIHO PHARMACEUTICAL CO., LTD., priority 2015, published 2018):
# Legend:
# [1] = Solid stability test (under exposure to light); type: physicochemical; conditions: for Change of crystal form (powder X-ray crystal analysis): room temperature, after irradiation at 3500000 lux·h (2000 lux×1750 h)
# Experimental: Using crystals I and II obtained in the Examples, the solid stability after storage under exposure to light was measured.
# Storage conditions: crystal I was stored at room temperature under exposure to light after being placed in a transparent glass dish covered with a lid. Measurement point: after irradiation at 3500000 lux·h (irradiation at 2000 lux×1750 h)
# Storage Container: Transparent Glass Dish
# The powder X-ray diffraction upon the storage stability test was measured after an appropriate amount of the test substance was lightly pulverized as necessary using an agate mortar under the following test conditions.
# Device: MiniFlex II, Rigaku Corporation
# X-ray output power: 15 mA, 30 kV Scanning range: 3.0 to 40.0° Step size: 0.010° Scanning speed: […]. Divergence slit: 1.25° Scatter slit: open Receiving slit: open
# [2] = Dynamic vapor sorption (DVS) system analysis (moisture adsorption-desorption test); type: physicochemical; conditions: 25° C., 5% to 95% RH
# Experimental: Dynamic vapor sorption (DVS) system analysis was performed under the following conditions.
# Device: VTI SGA-100, TA Instruments
# Sample: about 10 mg Measurement temperature: 25° C. RH steps: 5-95-1% RH by 5% RH
# Hygroscopic properties of crystals I and II obtained in the Examples were confirmed by dynamic vapor sorption (DVS) system analysis.
# The adsorption and desorption data was collected at 5% RH intervals in a range of relative humidity (RH) of 5% to 95%. Before the measurement, the samples were heated under nitrogen purging to 25° C. at 1° C./min, followed by drying for up to 6 hours until the weight change in 5 minutes became less than 0.0100%. The measurement was performed with equilibration for up to 2 hours until the weight change in 5 minutes became less than 0.0100%.
# [3] = Solid stability test (40° C., under light shielding), chemical purity by HPLC; type: physicochemical
# Experimental: Using crystal I obtained in the Examples, the solid stability after storage at 40° C. under light shielding was measured.
# Storage conditions: crystal I was stored at 40° C. after being placed in a light shielding bottle covered with a lid. Measurement points: after 1 month, after 3 months, after 6 months
# The amount of analog in the sample solution was measured by HPLC analysis. Handling of the device, including data processing, was performed in accordance with the method and procedures specified for each device (device: 2130-2450, HITACHI).
# Column: Mightysil RP-18 GP 150-4.6 (5 μm)
# UV detection: 220 nm Column temperature: 40° C. Column flow rate: 1.0 mL/min Mobile phase: A: acetonitrile, B: 10 mM phos. buffer
# [4] = target: hematopoietic prostaglandin D synthase (H-PGDS) (Homo sapiens, UniProt O60760); conditions: disclosed in Patent Document 1; cited from earlier work
# hematopoietic prostaglandin D synthase (H-PGDS), sequence (O60760 whole entry): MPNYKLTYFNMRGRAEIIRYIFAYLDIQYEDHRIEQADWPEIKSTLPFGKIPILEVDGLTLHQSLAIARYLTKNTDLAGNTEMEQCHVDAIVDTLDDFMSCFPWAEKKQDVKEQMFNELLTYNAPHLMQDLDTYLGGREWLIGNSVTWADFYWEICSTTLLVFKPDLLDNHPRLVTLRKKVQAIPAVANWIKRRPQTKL
Chemical purity after long-term storage under exposure to light [1],Change of crystal form (powder X-ray crystal analysis) [1],Change in weight due to changes in humidity [2],Powder X-ray crystal analysis before and after moisture adsorption and desorption [2],Chemical Purity (%) ([3]; After 1 month at 40° C. under light shielding),Chemical Purity (%) ([3]; After 3 months at 40° C. under light shielding),Chemical Purity (%) ([3]; After 6 months at 40° C. under light shielding),"Chemical Purity (%) ([3]; Initial Value, before storage)",Change of chemical purity after storage ([3]; storage at 40° C. under light shielding),SMILES,H-PGDS inhibiting effect [4]
not decreased,changed,great change in weight,not changed,–,–,–,–,–,"Cn1cccc1C(=O)N1CCN(C(=O)Nc2ccc(N3CCC(C(=O)N4CCOCC4)CC3)cc2)CC1 [crystal II, 4-((1-methylpyrrol-2-yl)-carbonyl)-N-(4-(4-morpholin-1-yl-carbonylpiperidin-1-yl)-phenyl)-1-piperazinecarboxamide]",–
not decreased,not changed,no changes in weight,not changed,99.8%,99.6%,99.9%,99.8%,not changed,"Cn1cccc1C(=O)N1CCN(C(=O)Nc2ccc(N3CCC(C(=O)N4CCOCC4)CC3)cc2)CC1 [crystal I, monohydrate of 4-((1-methylpyrrol-2-yl)-carbonyl)-N-(4-(4-morpholin-1-yl-carbonylpiperidin-1-yl)-phenyl)-1-piperazinecarboxamide]",–
–,–,–,–,–,–,–,–,–,"Cn1cccc1C(=O)N1CCN(C(=O)Nc2ccc(N3CCC(C(=O)N4CCOCC4)CC3)cc2)CC1 [Compound (1), 4-((1-methylpyrrol-2-yl)-carbonyl)-N-(4-(4-morpholin-1-yl-carbonylpiperidin-1-yl)-phenyl)-1-piperazinecarboxamide]",inhibiting effect
